# Legend:
# mouse vibrissae = test: Hair growth induction in organ-cultured mouse vibrissae; format: cell-based, mouse (C57BL/6 female mice); conditions: vibrissae cultured 3 days at 37° C.; for degree of hair growth induction (efficacy of promoting hair growth): vs untreated group; for degree of hair growth induction (effect of promoting hair growth): compared to inactive type necrostatin-1, FIG. 1; for degree of hair growth induction: siRNA treatment, vs control siRNA, FIG. 6
# Experimental: Specifically, the vibrissae of C57BL/6 female mice were trimmed and organ cultured. […] The vibrissae of the three treatment groups were treated with 10 μM, respectively, and then cultured for 3 days in an incubator at 37° C.
# Specifically, the vibrissae of C57BL/6 female mice were trimmed and organ cultured. The trimmed vibrissae were cultured in a 48-well plate so as to become one per well, and divided into a total of 3 groups: the untreated group (control group), the group treated with 1 μM sibiriline, and the group treated with 10 μM sibiriline. The vibrissae were treated, respectively, and then cultured for 3 days in an incubator at 37° C.
# Specifically, the vibrissae of C57BL/6 female mice were trimmed and organ cultured. The trimmed vibrissae were cultured in a 48-well plate so as to become one per well, and divided into a total of 3 groups: the untreated group (control group), the group treated with 1 μM GSK963, and the group treated with 10 μM GSK963. The vibrissae were treated, respectively, and then cultured for 3 days in an incubator at 37° C.
# Specifically, the vibrissae of C57/BL6 female mice were trimmed and organ cultured. The trimmed vibrissae were cultured in a 48-well plate so as to become one per well, and divided into a total of 4 groups: the untreated group (control group), the group treated with 1 μM GSK2982772, the group treated with 10 μM GSK2982772, and the group treated with 50 μM GSK2982772. The vibrissae were treated, respectively, and then cultured for 3 days in an incubator at 37° C.
# Specifically, the vibrissae of C57BL/6 female mice were trimmed and organ cultured. The trimmed vibrissae were cultured in a 48-well plate so as to become one per well, and divided into a total of 3 groups: the group treated with RIPK1 siRNA, the group treated with RIPK3 siRNA, and the group treated with control siRNA (control group) in Table 1. The vibrissae were treated, respectively, and then cultured for 3 days in an incubator at 37° C.
# C3H/HeN mice = test: Hair regrowth on the back of depilated mice after topical application; format: in vivo, mouse (C3H/HeN, male); conditions: 100 μl applied to the back, 13 days, FIG. 2
# Description: The hairs of ten 6-week-old male C3H/HeN mice were shaved short using a depilatory machine, and the remaining hairs were completely removed using a depilatory agent, and then they were stabilized for one day before use in the experiment.
# Mice were divided into 5 mice per group under the following conditions to conduct an experiment.
# After 13 days, the hairs on the back of the mouse in which hair regrowth occurred were shaved using a razor, and then the hairs were obtained, and the weight was measured.
compound,measurement,setting,value
CC(C)(C)C(=O)N1N=CCC1c1ccccc1 (stereo not shown) [GSK963],degree of hair growth induction (efficacy of promoting hair growth),mouse vibrissae; 1 μM,excellent efficacy of promoting hair growth
same,degree of hair growth induction (efficacy of promoting hair growth),mouse vibrissae; 10 μM,excellent efficacy of promoting hair growth
CN1C(=O)[C@@H](NC(=O)c2nnc(Cc3ccccc3)[nH]2)COc2ccccc21 [GSK2982772],degree of hair growth induction (efficacy of promoting hair growth),mouse vibrissae; 1 μM,excellent efficacy of promoting hair growth
same,degree of hair growth induction (efficacy of promoting hair growth),mouse vibrissae; 10 μM,excellent efficacy of promoting hair growth
same,degree of hair growth induction (efficacy of promoting hair growth),mouse vibrissae; 50 μM,excellent efficacy of promoting hair growth
CN1C(=O)C(Cc2c[nH]c3ccccc23)NC1=S (stereo not shown) [necrostatin-1],degree of hair growth induction (effect of promoting hair growth),mouse vibrissae; 10 μM,excellent effect of promoting hair growth compared to the inactive type necrostatin-1
CN1C(=O)NC(Cc2c[nH]c3c(Cl)cccc23)C1=O (stereo not shown) [necrostatin-1s],effect of inducing hair growth (appearance of hair growth and weight of the hair),"C3H/HeN mice; 100 μM, vs 2% minoxidil group",more excellent effect of inducing hair growth compared to the group administered with commercially available minoxidil
same,hair growth effect (appearance of hair growth and weight of the hair),"C3H/HeN mice; group administered with necrostatin-1s (10 μM or 100 μM), vs untreated control group",excellent hair growth effect compared to the untreated control group
same,degree of hair growth induction (effect of promoting hair growth),mouse vibrissae; 10 μM,excellent effect of promoting hair growth compared to the inactive type necrostatin-1
Oc1ccc(-c2cc3cccnc3[nH]2)cc1 [sibiriline],degree of hair growth induction (efficacy of promoting hair growth),mouse vibrissae; 1 μM,excellent efficacy of promoting hair growth
same,degree of hair growth induction (efficacy of promoting hair growth),mouse vibrissae; 10 μM,excellent efficacy of promoting hair growth
"RIPK1 siRNA: siRNA of SEQ ID NO: 1 and 2 capable of inhibiting RIP kinase expression (chain 1 GUCCUUGUGUUACCACAGA; chain 2 UCUGUGGUAACACAAGGAC; listed as RNA, chemistry not given here)",degree of hair growth induction,mouse vibrissae,hair growth was promoted
"RIPK3 siRNA: siRNA of SEQ ID NO: 3 and 4 capable of inhibiting RIP kinase expression (chain 1 CGAGUGAUGUCUACAGCUU; chain 2 AAGCUGUAGACAUCACUCG; listed as RNA, chemistry not given here)",degree of hair growth induction,mouse vibrissae,hair growth was promoted
